# Like-named read-outs stand apart in the source and are kept apart here.
# Test system: PSMA + PC-3 PiP and PSMA − PC-3 flu tumor xenografts
# Conditions: for Biodistribution: PC-3 PiP: PSMA+ tumor xenograft; for Biodistribution: PC-3 flu: PSMA− tumor xenograft
structure (smiles),measurement,setting,value
"O=C(O)CC[C@H](NC(=O)N[C@@H](CSCc1ccc([125I])cc1)C(=O)O)C(=O)O [[^125I] labeled DCIBC, (S)-2-(3-((R)-1-carboxy-2-(4-[^125I]iodobenzylthio)ethyl)ureido)-pentanedioic Acid]",Biodistribution: Lrg Int.,1 H post-injection,1.2 ± 0.1 % ID/g
same,Biodistribution: PSMA + tumor,1 H post-injection,8.0 ± 1.3 % ID/g
same,Biodistribution: PSMA − tumor,1 H post-injection,1.3 ± 0.2 % ID/g
same,Biodistribution: Sm int.,1 H post-injection,1.2 ± 0.3 % ID/g
same,Biodistribution: blood,1 H post-injection,5.8 ± 2.3 % ID/g
same,Biodistribution: heart,1 H post-injection,1.5 ± 0.2 % ID/g
same,Biodistribution: kidney,1 H post-injection,77 ± 17 % ID/g
same,Biodistribution: liver,1 H post-injection,20 ± 4 % ID/g
same,Biodistribution: lung,1 H post-injection,2.2 ± 0.4 % ID/g
same,Biodistribution: muscle,1 H post-injection,1.0 ± 0.8 % ID/g
same,Biodistribution: spleen,1 H post-injection,5.1 ± 2.2 % ID/g
same,Biodistribution: Lrg Int.,2 H post-injection,1.2 ± 0.5 % ID/g
same,Biodistribution: PSMA + tumor,2 H post-injection,5.6 ± 1.3 % ID/g
same,Biodistribution: PSMA − tumor,2 H post-injection,0.9 ± 0.1 % ID/g
same,Biodistribution: Sm int.,2 H post-injection,1.1 ± 0.2 % ID/g
same,Biodistribution: blood,2 H post-injection,4.9 ± 2.6 % ID/g
same,Biodistribution: heart,2 H post-injection,1.1 ± 0.2 % ID/g
same,Biodistribution: kidney,2 H post-injection,30 ± 8 % ID/g
same,Biodistribution: liver,2 H post-injection,17 ± 4 % ID/g
same,Biodistribution: lung,2 H post-injection,1.9 ± 0.5 % ID/g
same,Biodistribution: muscle,2 H post-injection,0.5 ± 0.2 % ID/g
same,Biodistribution: spleen,2 H post-injection,3.2 ± 0.6 % ID/g
same,Biodistribution: Lrg Int.,5 H post-injection,2.7 ± 1.9 % ID/g
same,Biodistribution: PSMA + tumor,5 H post-injection,5.5 ± 0.6 % ID/g
same,Biodistribution: PSMA − tumor,5 H post-injection,1.0 ± 0.3 % ID/g
same,Biodistribution: Sm Int.,5 H post-injection,1.7 ± 1.5 % ID/g
same,Biodistribution: blood,5 H post-injection,3.3 ± 1.1 % ID/g
same,Biodistribution: heart,5 H post-injection,0.9 ± 0.5 % ID/g
same,Biodistribution: kidney,5 H post-injection,18 ± 6 % ID/g
same,Biodistribution: liver,5 H post-injection,17 ± 1 % ID/g
same,Biodistribution: lung,5 H post-injection,1.0 ± 0.5 % ID/g
same,Biodistribution: muscle,5 H post-injection,0.4 ± 0.2 % ID/g
same,Biodistribution: spleen,5 H post-injection,3.9 ± 1.1 % ID/g
N=C(N)NCc1ccc(C(=O)NCCCC[C@H](NC(=O)N[C@@H](CCC(=O)O)C(=O)O)C(=O)O)cc1[131I] [[^131I] labeled 7 (PSMA-620)],Biodistribution: Sm int.,1 H post-injection,3.14 ± 0.66 % ID/g
same,Biodistribution: bladder,1 H post-injection,1.99 ± 0.50 % ID/g
same,Biodistribution: blood,1 H post-injection,0.95 ± 0.15 % ID/g
same,Biodistribution: heart,1 H post-injection,1.29 ± 0.37 % ID/g
same,Biodistribution: kidney,1 H post-injection,103 ± 24.0 % ID/g
same,Biodistribution: liver,1 H post-injection,8.25 ± 2.47 % ID/g
same,Biodistribution: lung,1 H post-injection,3.29 ± 0.56 % ID/g
same,Biodistribution: muscle,1 H post-injection,0.56 ± 0.05 % ID/g
same,Biodistribution: spleen,1 H post-injection,17.1 ± 3.71 % ID/g
same,Biodistribution: stomach,1 H post-injection,2.01 ± 0.41 % ID/g
same,Biodistribution: thyroid,1 H post-injection,0.79 ± 0.17 % ID/g
same,Biodistribution: Sm int.,2 H post-injection,2.29 ± 0.69 % ID/g
same,Biodistribution: bladder,2 H post-injection,1.65 ± 0.48 % ID/g
same,Biodistribution: blood,2 H post-injection,0.58 ± 0.08 % ID/g
same,Biodistribution: heart,2 H post-injection,0.89 ± 0.18 % ID/g
same,Biodistribution: kidney,2 H post-injection,89.0 ± 5.18 % ID/g
same,Biodistribution: liver,2 H post-injection,5.62 ± 1.17 % ID/g
same,Biodistribution: lung,2 H post-injection,1.99 ± 0.23 % ID/g
same,Biodistribution: muscle,2 H post-injection,0.34 ± 0.08 % ID/g
same,Biodistribution: spleen,2 H post-injection,6.81 ± 3.20 % ID/g
same,Biodistribution: stomach,2 H post-injection,2.55 ± 0.69 % ID/g
same,Biodistribution: thyroid,2 H post-injection,0.77 ± 0.25 % ID/g
same,Biodistribution: Sm int.,4 H post-injection,1.32 ± 0.68 % ID/g
same,Biodistribution: bladder,4 H post-injection,1.96 ± 1.10 % ID/g
same,Biodistribution: blood,4 H post-injection,0.30 ± 0.08 % ID/g
same,Biodistribution: heart,4 H post-injection,0.75 ± 0.34 % ID/g
same,Biodistribution: kidney,4 H post-injection,77.7 ± 38.8 % ID/g
same,Biodistribution: liver,4 H post-injection,4.37 ± 2.96 % ID/g
same,Biodistribution: lung,4 H post-injection,1.69 ± 0.67 % ID/g
same,Biodistribution: muscle,4 H post-injection,0.23 ± 0.10 % ID/g
same,Biodistribution: spleen,4 H post-injection,3.63 ± 2.40 % ID/g
same,Biodistribution: stomach,4 H post-injection,2.87 ± 0.55 % ID/g
same,Biodistribution: thyroid,4 H post-injection,0.75 ± 0.17 % ID/g
same,Biodistribution: Sm int.,14 H post-injection,0.42 ± 0.12 % ID/g
same,Biodistribution: bladder,14 H post-injection,0.74 ± 0.35 % ID/g
same,Biodistribution: blood,14 H post-injection,0.16 ± 0.04 % ID/g
same,Biodistribution: heart,14 H post-injection,0.48 ± 0.12 % ID/g
same,Biodistribution: kidney,14 H post-injection,17.2 ± 10.7 % ID/g
same,Biodistribution: liver,14 H post-injection,0.60 ± 0.28 % ID/g
same,Biodistribution: lung,14 H post-injection,1.02 ± 0.27 % ID/g
same,Biodistribution: muscle,14 H post-injection,0.10 ± 0.02 % ID/g
same,Biodistribution: spleen,14 H post-injection,1.27 ± 0.42 % ID/g
same,Biodistribution: stomach,14 H post-injection,2.24 ± 1.08 % ID/g
same,Biodistribution: thyroid,14 H post-injection,0.74 ± 0.27 % ID/g
same,Biodistribution: Sm int.,21 H post-injection,0.31 ± 0.07 % ID/g
same,Biodistribution: bladder,21 H post-injection,0.56 ± 0.37 % ID/g
same,Biodistribution: blood,21 H post-injection,0.09 ± 0.07 % ID/g
same,Biodistribution: heart,21 H post-injection,0.40 ± 0.11 % ID/g
same,Biodistribution: kidney,21 H post-injection,7.52 ± 1.82 % ID/g
same,Biodistribution: liver,21 H post-injection,0.33 ± 0.06 % ID/g
same,Biodistribution: lung,21 H post-injection,1.00 ± 0.21 % ID/g
same,Biodistribution: muscle,21 H post-injection,0.09 ± 0.01 % ID/g
same,Biodistribution: spleen,21 H post-injection,0.93 ± 0.37 % ID/g
same,Biodistribution: stomach,21 H post-injection,1.91 ± 0.95 % ID/g
same,Biodistribution: thyroid,21 H post-injection,0.88 ± 0.13 % ID/g
same,Biodistribution: PC-3 PiP,1 H post-injection,16.5 ± 4.78 % ID/g
same,Biodistribution: PC-3 PiP,2 H post-injection,17.2 ± 4.34 % ID/g
same,Biodistribution: PC-3 PiP,4 H post-injection,18.3 ± 4.27 % ID/g
same,Biodistribution: PC-3 PiP,14 H post-injection,15.8 ± 2.42 % ID/g
same,Biodistribution: PC-3 PiP,21 H post-injection,13.6 ± 3.33 % ID/g
same,Biodistribution: PC-3 flu,1 H post-injection,1.09 ± 0.21 % ID/g
same,Biodistribution: PC-3 flu,2 H post-injection,0.80 ± 0.11 % ID/g
same,Biodistribution: PC-3 flu,4 H post-injection,0.57 ± 0.21 % ID/g
same,Biodistribution: PC-3 flu,14 H post-injection,0.28 ± 0.10 % ID/g
same,Biodistribution: PC-3 flu,21 H post-injection,0.20 ± 0.08 % ID/g
N=C(N)NCc1ccc(C(=O)NCCCCC(NC(=O)CCCCCCC(=O)NCCCC[C@H](NC(=O)N[C@@H](CCC(=O)O)C(=O)O)C(=O)O)C(=O)O)cc1[131I] (some centres unmarked) [[^131I] labeled PSMA-904],Biodistribution: Lrg Int.,1 H post-injection,0.50 ± 0.65 % ID/g
same,Biodistribution: Sm int.,1 H post-injection,33.81 ± 6.36 % ID/g
same,Biodistribution: bladder,1 H post-injection,0.71 ± 0.23 % ID/g
same,Biodistribution: blood,1 H post-injection,0.46 ± 0.17 % ID/g
same,Biodistribution: heart,1 H post-injection,0.46 ± 0.18 % ID/g
same,Biodistribution: kidney,1 H post-injection,121 ± 23.8 % ID/g
same,Biodistribution: liver,1 H post-injection,5.16 ± 3.81 % ID/g
same,Biodistribution: lung,1 H post-injection,1.39 ± 0.36 % ID/g
same,Biodistribution: muscle,1 H post-injection,0.31 ± 0.14 % ID/g
same,Biodistribution: spleen,1 H post-injection,9.83 ± 3.28 % ID/g
same,Biodistribution: stomach,1 H post-injection,0.73 ± 0.26 % ID/g
same,Biodistribution: thyroid,1 H post-injection,0.11 ± 0.13 % ID/g
same,Biodistribution: Lrg Int.,2 H post-injection,21.3 ± 15.9 % ID/g
same,Biodistribution: Sm int.,2 H post-injection,14.2 ± 12.0 % ID/g
same,Biodistribution: bladder,2 H post-injection,0.64 ± 0.25 % ID/g
same,Biodistribution: blood,2 H post-injection,0.18 ± 0.07 % ID/g
same,Biodistribution: heart,2 H post-injection,0.27 ± 0.14 % ID/g
same,Biodistribution: kidney,2 H post-injection,110 ± 37.2 % ID/g
same,Biodistribution: liver,2 H post-injection,3.48 ± 2.35 % ID/g
same,Biodistribution: lung,2 H post-injection,0.81 ± 0.37 % ID/g
same,Biodistribution: muscle,2 H post-injection,0.13 ± 0.03 % ID/g
same,Biodistribution: spleen,2 H post-injection,3.41 ± 2.01 % ID/g
same,Biodistribution: stomach,2 H post-injection,1.03 ± 0.62 % ID/g
same,Biodistribution: thyroid,2 H post-injection,0.31 ± 0.23 % ID/g
same,Biodistribution: Lrg Int.,21 H post-injection,14.5 ± 8.08 % ID/g
same,Biodistribution: Sm int.,21 H post-injection,0.87 ± 0.92 % ID/g
same,Biodistribution: bladder,21 H post-injection,0.07 ± 0.09 % ID/g
same,Biodistribution: blood,21 H post-injection,0.02 ± 0.01 % ID/g
same,Biodistribution: heart,21 H post-injection,0.02 ± 0.01 % ID/g
same,Biodistribution: kidney,21 H post-injection,3.03 ± 2.96 % ID/g
same,Biodistribution: liver,21 H post-injection,0.24 ± 0.39 % ID/g
same,Biodistribution: lung,21 H post-injection,0.03 ± 0.01 % ID/g
same,Biodistribution: muscle,21 H post-injection,0.03 ± 0.02 % ID/g
same,Biodistribution: spleen,21 H post-injection,0.16 ± 0.07 % ID/g
same,Biodistribution: stomach,21 H post-injection,1.98 ± 3.10 % ID/g
same,Biodistribution: thyroid,21 H post-injection,0.42 ± 0.35 % ID/g
same,Biodistribution: PC-3 PiP,1 H post-injection,27.6 ± 7.59 % ID/g
same,Biodistribution: PC-3 PiP,2 H post-injection,24.7 ± 9.77 % ID/g
same,Biodistribution: PC-3 PiP,21 H post-injection,19.2 ± 7.28 % ID/g
same,Biodistribution: PC-3 flu,1 H post-injection,0.49 ± 0.23 % ID/g
same,Biodistribution: PC-3 flu,2 H post-injection,0.22 ± 0.06 % ID/g
same,Biodistribution: PC-3 flu,21 H post-injection,0.02 ± 0.01 % ID/g

# Reference: US20200231614A1, “PSMA TARGETED RADIOHALOGENATED UREAS FOR CANCER RADIOTHERAPY” (THE JOHNS HOPKINS UNIVERSITY, priority 2015, published 2020)
